In ChEMBL document CHEMBL1128734, “Pyrrolo[1,2-a]benzimidazole-based quinones and iminoquinones. The role of the 3-substituent on cytotoxicity” (J Med Chem, 1995):

What was measured:
Cancer cell lines = assay: Ratio of the LC50 value to that of imino-APBI-A.; format: functional
[1] = Ratio of the LC50 value to that of PBI-A.; format: functional
[2] = COMPARE correlation coefficient of the LC50 response pattern with that of APBI-A.

## CC(=O)NC1=C(C)C(=O)c2c(nc3n2CCC3OC(=O)c2ccccc2)C1=N (configuration not stated)
Cancer cell lines
  Ratio: 0.58

## CC(=O)OC1CCn2c1nc1c2C(=O)C(C)=C(N2CC2)C1=O (configuration not stated)
[1]
  Ratio: 1

## CC(=O)NC1=C(C)C(=O)c2c(nc3n2CCC3O)C1=N (configuration not stated)
Cancer cell lines
  Ratio: 0.09

## COCC(=O)C1CCn2c1nc1c2C(=O)C(C)=C(NC(C)=O)C1=O (configuration not stated)
[2]
  COMPARE correlation coefficient: 0.71

## CC(=O)NC1=C(C)C(=O)c2c(nc3n2CCC3OC(C)=O)C1=N (configuration not stated)
Cancer cell lines
  Ratio: 1

## CC1=C(N2CC2)C(=O)c2nc3n(c2C1=O)CCC3OC(N)=O (configuration not stated)
[1]
  Ratio: 0.84

## COCC(=O)C1CCn2c1nc1c2C(=O)C(C)=C(NC(C)=O)C1=N (configuration not stated)
Cancer cell lines
  Ratio: 0.52

## CCC(=O)OC1CCn2c1nc1c2C(=O)C(C)=C(NC(C)=O)C1=N (configuration not stated)
Cancer cell lines
  Ratio: 0.26

## CCC(=O)OC1CCn2c1nc1c2C(=O)C(C)=C(N2CC2)C1=O (configuration not stated)
[1]
  Ratio: 0.72

## CC(=O)NC1=C(C)C(=O)c2c(nc3n2CCC3OC(C)=O)C1=O (configuration not stated)
[2]
  COMPARE correlation coefficient: 1

## CC1=C(N2CC2)C(=O)c2nc3n(c2C1=O)CCC3
[1]
  Ratio: 0.71

## CC(=O)NC1=C(C)C(=O)c2c(nc3n2CCC3)C1=O
[2]
  COMPARE correlation coefficient: 0.7
